This is an account of results in patent US7442541B2, “β-glucan-containing fat and oil composition and novel microorganism capable of producing β-glucan” (Adeka Corporation, priority 2002, dated 2008).

SMILES strings stand for the structures. Where only a bound is given, the exact number is not on record here.

What all share (assay type): cell-based, Aureobasidium pullulans
Experiment [1] has as its system IFO-4466, IFO-6353, and IFO-7757. Put plainly: Growth of reference strains on solid medium containing cycloheximide. The settings on record: solid medium (agar plate), 26° C., 10 days. The method, then:
This is the case that the formation of a colony of 0.1 mm or greater, preferably 0.3 mm or greater, still preferably 0.5 mm or greater in diameter as a result of fungous proliferation is observed on a solid medium having the cycloheximide concentration that IFO strains is not allowed to grow after a strain is inoculated on the solid medium (agar plate) containing cycloheximide and cultured at 26° C. for 10 days. Usually, these IFO strains are not allowed to grow on a solid medium containing cycloheximide at concentrations of 20 μg/ml or higher.

The test system of experiment [2] is ADK-34. Put plainly: Cycloheximide resistance test. To be noted: strain ADK-34, YM agar, 26° C., 10 days. On the procedure:
(§1) The strains obtained by the screening in Test Examples 1 and 2 and IFO-4466, IFO-6353, and IFO-7757 purchased from Institute for Fermentation, Osaka, i.e., were tested for cycloheximide resistance as follows. Each strain was grown on YM agar medium (Difco) at 26° C. for 5 days. YM agar media (Difco) containing 5, 10, 20, 40, and 80 μg/ml of cycloheximide were prepared. The grown strain was inoculated into each of the cycloheximide-containing media using a sterile toothpick and incubated at 26° C. for 10 days. The plates were examined for colonies. The diameters of the colonies, if formed, were measured.

Experiment [3] concerns IFO-4466. Put plainly: Cycloheximide resistance test. To be noted: strain IFO-4466, YM agar, 26° C., 10 days. The method, then: as §1

For the molecule `C[C@@H]1C[C@@H]([C@H](O)CC2CC(=O)NC(=O)C2)C(=O)[C@@H](C)C1` [Cycloheximide, cycloheximide], the “cycloheximide concentration at which IFO strains are not allowed to grow” value in experiment [1] is at least 20 µg/mL. In addition, the Colony diameter worked out at 13.6 mm in experiment [2] (cycloheximide 5 μg/ml); 6.7 mm in experiment [2] (cycloheximide 10 μg/ml); 5.1 mm in experiment [2] (cycloheximide 20 μg/ml); 3.7 mm in experiment [2] (cycloheximide 40 μg/ml); 0.5 mm in experiment [2] (cycloheximide 80 μg/ml); 4.4 mm in experiment [3] (cycloheximide 5 μg/ml). Besides, the Colony diameter in experiment [3] (cycloheximide 10 μg/ml), in experiment [3] (cycloheximide 20 μg/ml), in experiment [3] (cycloheximide 40 μg/ml) and in experiment [3] (cycloheximide 80 μg/ml) was 0 mm each time.
